Results published in the supplement of paper PMC10331698.
± gives the standard deviation of the averaged measurements.

Experiments:
Assay in all cases: level (log10 ratio to DMSO vehicle control); higher = higher biomarker level / cell amount than vehicle control
Conditions in all cases: in DMSO
[1] = compound: FC(F)(F)C(F)(F)C(F)(F)C(F)(F)C(F)(F)C(F)(F)C(F)(F)CCI [1-Iodo-1H,1H,2H,2H-perfluorononane]
Method: (§1)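 BioMAP Diversity Plus panel of 12 human primary cell co-culture systems (3C, 4H, LPS, SAg, BT, BF4T, BE3C, CASM3C, HDF3CGF, KF3CT, MyoF, Mphg). Compounds were added 1 h before stimulation and left for 24 h (MyoF 48 h; BT 72 h for soluble read-outs or 6 d for IgG). Biomarkers were read by ELISA, cytotoxicity by SRB, PBMC viability and proliferation by Alamar Blue. Each well value was divided by the mean of 8 DMSO control wells on the same plate and log10 transformed; duplicate blinded samples were tested at 4 concentrations.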

[2] = compound: O=S(=O)(O)C(F)(F)C(F)(F)C(F)(F)C(F)(F)C(F)(F)C(F)(F)C(F)(F)C(F)(F)F [Potassium perfluorooctanesulfonate]
Method: as §1

[3] = compound: O=S(=O)(O)C(F)(F)C(F)(F)C(F)(F)C(F)(F)F [Perfluorobutanesulfonic acid]
Method: as §1

[4] = compound: O=P(O)(O)CCC(F)(F)C(F)(F)C(F)(F)C(F)(F)C(F)(F)C(F)(F)C(F)(F)C(F)(F)F [((Perfluorooctyl)ethyl)phosphonic acid]
Method: as §1

Hexafluoroglutaric acid = compound: O=C(O)C(F)(F)C(F)(F)C(F)(F)C(=O)O [Hexafluoroglutaric acid]
Method: as §1

Perfluorohexanoic acid = compound: O=C(O)C(F)(F)C(F)(F)C(F)(F)C(F)(F)C(F)(F)F [Perfluorohexanoic acid]
Method: as §1

[5] = compound: O=S(=O)(O)C(F)(F)C(F)(F)C(F)(F)C(F)(F)C(F)(F)C(F)(F)C(F)(F)C(F)(F)F [Perfluorooctanesulfonic acid]
Method: as §1

Test System | level (log10) ([1]; 6700 nM) | level (log10) ([1]; 20000 nM) | level (log10) ([2]; 6700 nM) | level (log10) ([2]; 20000 nM) | level (log10) ([2]; 60000 nM) | level (log10) ([3]; 6700 nM) | level (log10) ([3]; 20000 nM) | level (log10) ([3]; 60000 nM) | level (log10) ([4]; 6700 nM) | level (log10) ([4]; 20000 nM) | level (log10) ([4]; 60000 nM) | level (log10) (Hexafluoroglutaric acid; 6700 nM) | level (log10) (Hexafluoroglutaric acid; 20000 nM) | level (log10) (Hexafluoroglutaric acid; 60000 nM) | level (log10) (Perfluorohexanoic acid; 6700 nM) | level (log10) (Perfluorohexanoic acid; 20000 nM) | level (log10) (Perfluorohexanoic acid; 60000 nM) | level (log10) ([5]; 6700 nM) | level (log10) ([5]; 20000 nM) | level (log10) ([5]; 60000 nM)
MyoF:Collagen I | 0.007 ± 0.0042 | -0.015 ± 0.028 | -0.0145 ± 0.023 | -0.0095 ± 0.013 | 0.0075 ± 0.021 | -0.017 ± 0.023 | -0.004 ± 0.0014 | -0.0235 ± 0.0064 | -0.021 ± 0.0014 | -0.014 ± 0.0057 | -0.009 ± 0.035 | -0.003 ± 0.013 | -0.0005 ± 0.016 | 0.011 ± 0.0014 | -0.01 ± 0.0057 | -0.0095 ± 0.0092 | -0.0025 ± 0.011 | -0.012 ± 0.018 | -0.0045 ± 0.0092 | 0.015 ± 0.021
MyoF:Collagen III | 0.0145 ± 0.0021 | -0.0055 ± 0.03 | -0.0275 ± 0.018 | -0.028 ± 0.031 | -0.0365 ± 0.025 | 0.02 ± 0.024 | 0.0265 ± 0.0064 | 0.0145 ± 0.0064 | -0.013 ± 0.014 | -0.013 ± 0.017 | -0.073 ± 0.05 | 0.006 ± 0.0042 | 0.0035 ± 0.005 | 0.0055 ± 0.00071 | 0.0075 ± 0.012 | 0.003 ± 0.02 | 0.0105 ± 0.0092 | -0.0265 ± 0.026 | -0.025 ± 0.0071 | -0.0385 ± 0.012
MyoF:Collagen IV | 0.027 ± 0.0042 | 0.082 ± 0.018 | 0.024 ± 0.017 | 0.0125 ± 0.022 | 0.0175 ± 0.05 | 0.04 ± 0.0057 | 0.0055 ± 0.033 | 0.016 ± 0.013 | -0.0005 ± 0.013 | 0.012 ± 0.025 | -0.01 ± 0.057 | -0.004 ± 0.013 | 0.002 ± 0.021 | -0.0055 ± 0.0064 | 0.0245 ± 0.0064 | 0.0165 ± 0.0064 | 0.0345 ± 0.037 | 0.0045 ± 0.039 | -0.0005 ± 0.005 | 0.037 ± 0.034
MyoF:Decorin | 0.014 ± 0.0042 | 0.038 ± 0.05 | 0.0305 ± 0.019 | 0.0305 ± 0.013 | 0.0565 ± 0.013 | 0.0315 ± 0.012 | 0.03 ± 0.016 | 0.083 ± 0.013 | 0.0185 ± 0.00071 | 0.028 ± 0.0099 | 0.0305 ± 0.046 | -0.0145 ± 0.0078 | -0.0225 ± 0.0064 | -0.031 ± 0.0099 | -0.0215 ± 0.015 | 0.0005 ± 0.023 | 0.024 ± 0.013 | 0.018 ± 0.0071 | 0.0365 ± 0.013 | 0.054 ± 0.018
MyoF:MMP-1 | -0.012 ± 0.013 | -0.0145 ± 0.025 | -0.04 ± 0.021 | -0.047 ± 0.031 | 0.0305 ± 0.044 | 0.0385 ± 0.005 | 0.065 ± 0.0071 | 0.0885 ± 0.0035 | -0.036 ± 0.0085 | 0.007 ± 0.0085 | 0.0865 ± 0.04 | 0 ± 0.0085 | -0.0115 ± 0.012 | -0.008 ± 0.014 | -0.0115 ± 0.0035 | -0.0055 ± 0.019 | 0.0235 ± 0.025 | -0.031 ± 0.0014 | -0.031 ± 0.013 | 0.038 ± 0.048
MyoF:PAI-I | -0.002 ± 0.02 | -0.0025 ± 0.0035 | 0.003 ± 0.025 | -0.006 ± 0.0014 | -0.0065 ± 0.0064 | -0.011 ± 0.013 | 0.0065 ± 0.0078 | 0.0005 ± 0.0064 | -0.0215 ± 0.0092 | -0.0075 ± 0.0064 | -0.0285 ± 0.035 | -0.0025 ± 0.021 | -0.0035 ± 0.015 | 0.003 | 0.0025 ± 0.005 | 0.002 ± 0.0028 | 0.009 | 0.003 ± 0.017 | -0.0105 ± 0.0064 | -0.0055 ± 0.0092
MyoF:SRB | 0.016 ± 0.0014 | 0.0325 ± 0.0021 | -0.001 ± 0.011 | -0.0085 ± 0.0035 | -0.0145 ± 0.016 | -0.002 ± 0.0071 | -0.0035 ± 0.00071 | 0.0085 ± 0.00071 | 0.002 ± 0.0042 | 0.0025 ± 0.0064 | 0.004 | 0.0015 ± 0.00071 | -0.002 ± 0.0085 | -0.0045 ± 0.0092 | 0.009 ± 0.0014 | 0.008 ± 0.0085 | 0.007 ± 0.0057 | -0.0045 ± 0.00071 | -0.0155 ± 0.00071 | -0.0185 ± 0.019
MyoF:TIMP-1 | -0.002 ± 0.054 | 0.0165 ± 0.042 | 0.069 ± 0.02 | 0.0605 ± 0.03 | 0.111 ± 0.0021 | 0.012 ± 0.014 | 0.009 ± 0.0085 | 0.0205 ± 0.00071 | 0.0415 ± 0.0078 | 0.0765 ± 0.0078 | 0.0715 ± 0.026 | 0.001 ± 0.014 | -0.0545 ± 0.053 | -0.0205 ± 0.0035 | 0.0085 ± 0.0021 | -0.006 ± 0.0042 | 0.0245 ± 0.0064 | -0.002 ± 0.03 | 0.003 ± 0.0071 | 0.102 ± 0.0021
MyoF:alpha-SM Actin | -0.016 ± 0.02 | -0.0435 ± 0.0035 | -0.0215 ± 0.079 | -0.027 ± 0.075 | -0.0175 ± 0.066 | -0.016 ± 0.0099 | -0.0265 ± 0.0078 | -0.0195 ± 0.005 | 0.0005 ± 0.046 | -0.001 ± 0.038 | 0.004 ± 0.031 | -0.008 ± 0.044 | -0.0065 ± 0.029 | 0.033 ± 0.017 | -0.021 ± 0.016 | 0.011 ± 0.0099 | 0.013 ± 0.037 | -0.0015 ± 0.023 | 0.004 ± 0.035 | 0.0105 ± 0.005
MyoF:bFGF | 0.01 ± 0.0014 | 0.021 ± 0.017 | -0.0105 ± 0.025 | -0.0195 ± 0.023 | -0.019 ± 0.028 | 0.0065 ± 0.013 | 0.0105 ± 0.018 | -0.0065 ± 0.0064 | -0.0245 ± 0.018 | -0.024 ± 0.018 | -0.0585 ± 0.037 | 0.01 ± 0.014 | 0.0105 ± 0.013 | 0.017 ± 0.0014 | 0.0005 ± 0.005 | -0.0105 ± 0.019 | 0.0005 ± 0.021 | -0.004 | -0.0185 ± 0.028 | -0.0125 ± 0.018
lMphg:CCL2/MCP-1 | -0.014 ± 0.0071 | 0.0385 ± 0.032 | -0.0275 ± 0.018 | -0.013 ± 0.047 | -0.0155 ± 0.026 | 0.0105 ± 0.0021 | 0.0105 ± 0.0078 | 0.0145 ± 0.025 | -0.0325 ± 0.0092 | -0.059 ± 0.024 | -0.039 ± 0.04 | -0.046 ± 0.052 | -0.0305 ± 0.037 | -0.0235 ± 0.011 | -0.0065 ± 0.028 | -0.021 ± 0.0099 | -0.014 ± 0.041 | -0.0055 ± 0.0092 | 0.0015 ± 0.0064 | -0.0075 ± 0.04
